Test results reported in patent publication US20060046972A1, “Cytotoxic nucleoside analog compound 003 for treating cancer” (Parker Hughes Institute, priority 2004, published 2006).

Test: Acute toxicity of intraperitoneal bolus doses in CD-1 mice
Assay type: in vivo
Conditions: female, CD-1, mouse, in vivo, ip; single i.p. bolus; not reached at highest dose
Method: 1.2.8 Animals Female CD-1 mice (Body weight: ˜25 g; Age: 7 week old) were purchased, from Charles River Laboratories (Willmington, Mass., USA). MMTV Neu-mice [FVB/N-TgN(MMTV neu)202MUL; Jackson Laboratory, Bar Harbor, Me.] were bred to produce multiple litters. All mice were housed in microisolator cages (Lab Products, Inc., Maywood, N.Y., USA) containing autoclaved bedding in a controlled specific pathogen-free (SPF) environment (12-h light/12-h dark photoperiod, 22±1° C., 60±10% relative humidity), which is fully accredited by the USDA (United States Department of Agriculture). Adult male Lewis rats (Body weight: ˜160 g) were obtained from the specific pathogen-free (SPF) breeding facilities of Harlan Sprague Dawley (Indianapolis, Id., USA) at 14 weeks of age. All husbandry and experimental contact made with the mice and rats maintained SPF conditions. The rats were kept in microisolater cages (Allentown Caging Equipment Co., Inc., Allentown, N.J., USA) containing autoclaved food, water, and bedding. Animal studies were approved by Parker Hughes Institute Animal Care and Use Committee and all animal care procedures 1.5 conformed to the Guide for the Care and Use of Laboratory Animals (National Research Council, National Academy Press, Washington D.C. 1996, USA).
The toxicity profile of Compound 003 in CD-1 mice and Lewis rats was examined, using standard procedures as previously reported for other experimental drugs (Uckun, et al., 2003, Arzneimittelforschun. 53:357; Uckun, et al., 2002, Clin Cancer Res. 8: 1224; Uckun, et al., 2002, Antimicrob Agents Chemother. 46:3428). In brief, mice and rats were treated with intraperitoneal injections of vehicle or Compound 003 at multiple dose levels. Compound 003 was administered as a 0.2 mL (for mice) or 0.5 mL (for rats) bolus injection containing 10% DMSO as a vehicle. Animals were allowed free access to autoclaved standard pellet food and tap water throughout the experiments and monitored daily for morbidity and mortality. Animals were electively sacrificed on day 7 or day 30 to determine the toxicity of Compound 003 by examining their blood chemistry profiles, blood counts, and evaluating multiple organs for the presence of toxic lesions. Blood was collected by intracardiac puncture following anesthesia with ketamine:xylazine and immediately heparinized. The blood chemistry profiles were examined using a Synchron CX5CE Chemical Analyzer (Beckman Instruments, Inc., Fullerton, Calif., USA). Blood counts (red blood cells [RBC], white blood cells [WBC] and platelets [Plt]) were determined using a HESKA Vet ABC-Diff Hematology Analyzer (HESKA Corporation, Fort Collins, Colo., USA). Absolute neutrophil counts (ANC) and absolute lymphocyte counts (ALC) were calculated from WBC values after determining the percentages of neutrophils and lymphocytes by a manual differential count. At the time of necropsy, […] from mice (bone, bone marrow, brain, cecum, heart, kidney, large intestine, liver, lung, lymph node, ovary, pancreas, skeletal muscle, skin, small intestine, spleen, stomach, thymus, thyroid gland, urinary bladder, and uterus, as available) and 21 different tissues from rats (bone, bone marrow, brain, coagulating gland, epididymis, heart, large intestine, small intestine, kidney, liver, lung, pancreas, peripheral nerve/spinal nerve, skeletal muscle, skin, spinal cord, spleen, stomach, testes, thymus, urinary bladder) were collected within 15 minutes after sacrifice, gross pathological findings were documented, organs were preserved in 10% neutral phosphate buffered formalin, and processed for histopathological examination. For histopathologic studies, formalin fixed tissues were dehydrated and embedded in paraffin by routine methods. Glass slides with affixed 4-5 micron tissue sections were prepared and stained with Hemotoxylin and Eosin (H&E). […]

COC(=O)C(C)NP(=O)(OCC1OC(n2cc(C)c(=O)[nH]c2=O)CC1N=[N+]=[N-])Oc1ccc(OC)cc1 (stereo not shown) [Compound 003, 3′-azidothymidine 5′-[p-methoxyphenylmethoxyalaninyl phosphate]]
LD50: > 80 mg/kg
